pIC50: −log10 of the molar value. Calls of active or inactive are those of the source. The rule behind the calls is not given here.
How the values were obtained:
[1] = target: Tyrosine-protein kinase JAK1 (Homo sapiens, UniProt P23458); test: Inhibition of human JAK1 (866 to end residues) using GEEPLYWSFPAKKK as substrate after 40 mins by [gamma-33ATP] radiometric assay
[2] = target: Non-receptor tyrosine-protein kinase TYK2 (Homo sapiens, UniProt P29597); test: Inhibition of recombinant human TYK2 (875 to end residues) using GGMEDIYFEFMGGKKK as substrate incubated for 40 mins in presence of [gamma33P]ATP by scintillation counting based radiometry assay
Vero = test: Cytotoxicity against African green monkey Vero cells assessed as reduction in cell viability incubated for 72 hrs by MTT assay; assay type: cell-based; details: Chlorocebus sabaeus
SET-2 [3] = test: Induction of apoptosis in human SET-2 cells assessed as live cells at 0.4 uM incubated for 24 hrs by Annexin V/PI staining based flow cytometric analysis (reference value: 96.23 %); assay type: functional
[4] = Apparent clearance in Sprague-Dawley rat at 5 mg/kg, po administered via gavage measured upto 24 hrs by LC/MS/MS analysis; assay type: ADME, organism-based; details: in vivo, read-out: CL(app) (converted)
SET-2 [5] = test: Induction of apoptosis in human SET-2 cells assessed as live cells at 1.6 uM incubated for 24 hrs by Annexin V/PI staining based flow cytometric analysis (reference value: 96.23 %); assay type: functional
[6] = Apparent clearance in Sprague-Dawley rat at 5 mg/kg, iv administered […] measured upto 24 hrs by LC/MS/MS analysis; assay type: ADME, organism-based; details: in vivo, read-out: CL(app) (converted)
Mus musculus = test: In vivo inhibition of JAK2 V617F mutant in mouse BAF3 cells xenografted Balb/c nude mouse assessed as decrease in STAT5 phosphorylation in spleen at 30 to 60 mg/kg, po qd administered starting from day 4 to 20 and measured on day 25 by Western blot analysis; assay type: functional, organism-based; details: dose 30-60 mg/kg, time 21.0 day
SET-2 [7] = test: Induction of apoptosis in human SET-2 cells assessed as live cells at 0.8 uM incubated for 24 hrs by Annexin V/PI staining based flow cytometric analysis (reference value: 96.23 %); assay type: functional
SET-2 [8] = test: Induction of apoptosis in human SET-2 cells assessed as necrotic cells at 0.05 uM incubated for 24 hrs by Annexin V/PI staining based flow cytometric analysis (reference value: 0.78%); assay type: functional
[9] = Tmax in male Sprague-Dawley rat at 5 mg/kg, iv administered […] measured upto 24 hrs by LC/MS/MS analysis; assay type: ADME, organism-based; details: in vivo
[10] = test system: Tyrosine-protein kinase JAK2 (Mus musculus), Q62120 [V617F]; test: Inhibition of JAK2 V617F mutant in mouse BAF3 cells assessed as decrease in STAT5 phosphorylation at 50 nM after 2 hrs by Western blot analysis; assay type: cell-based
[11] = Intrinsic clearance in rat liver microsomes; assay type: ADME, Microsome; details: read-out: CLH (converted)
[12] = Selectivity index, ratio of IC50 for inhibition of recombinant human JAK3 (781 to end residues) to IC50 for inhibition of recombinant human JAK2 (808 to end residues)
SET-2 [13] = test: Antitumor activity against human SET2 cells xenografted in NOD/SCID mouse assessed as tumor growth inhibition at 15 mg/kg, po qd administered for 16 days and measured every 2 days relative to control; assay type: functional; details: SET-2, po, 384 h, time 16 day, read-out: TGI
BaF3 [14] = test: Antitumor activity against mouse BAF3 cells harboring JAK2 V617F mutant implanted in Balb/c mouse assessed as decrease in liver weight at 60 mg/kg, po qd administered starting from day 4 to 20 and measured on day 25 relative to control; assay type: functional; set-up: scale not given: the % may be the effect or the level left; details: time 21 day
SET-2 [15] = test: Induction of apoptosis in human SET-2 cells assessed as late apoptotic cells at 1.6 uM incubated for 24 hrs by Annexin V/PI staining based flow cytometric analysis (reference value: 1.52%); assay type: functional
SET-2 [16] = test: Induction of apoptosis in human SET-2 cells assessed as late apoptotic cells at 0.05 uM incubated for 24 hrs by Annexin V/PI staining based flow cytometric analysis (reference value: 1.52%); assay type: functional
[17] = Toxicity in NOD/SCID mouse xenografted with human SET2 cells assessed as animal death at 15 to 60 mg/kg, po qd administered for 16 days and measured after 36 days; assay type: organism-based; details: in vivo, 864 h, dose 15-60 mg/kg, time 36 day
SET-2 [18] = test: Induction of apoptosis in human SET-2 cells assessed as necrotic cells at 0.4 uM incubated for 24 hrs by Annexin V/PI staining based flow cytometric analysis (reference value: 0.78%); assay type: functional
[19] = Tmax in male Sprague-Dawley rat at 5 mg/kg, po administered via gavage measured upto 24 hrs by LC/MS/MS analysis; assay type: ADME, organism-based; details: in vivo
SET-2 [20] = test: Induction of apoptosis in human SET-2 cells assessed as live cells at 0.05 uM incubated for 24 hrs by Annexin V/PI staining based flow cytometric analysis (reference value: 96.23 %); assay type: functional
[21] = target: Receptor-type tyrosine-protein kinase FLT3 (Homo sapiens, UniProt P36888, D835Y); test: Inhibition of recombinant human FLT3 D835Y mutant (564 to end residues) using EAIYAAPFAKKK as substrate at 40 mins in presence of [gamma-33ATP] by scintillation counting based radiometry assay
BaF3 [22] = test: Antitumor activity against mouse BAF3 cells harboring JAK2 V617F mutant implanted in Balb/c mouse assessed as decrease in liver weight at 30 mg/kg, po qd administered starting from day 4 to 20 and measured on day 25 relative to control; assay type: functional; set-up: scale not given: the % may be the effect or the level left; details: time 21 day
[23] = test system: Receptor-type tyrosine-protein kinase FLT3 (Homo sapiens), P36888 [UNDEFINED MUTATION]; test: Inhibition of FLT3 ITD mutant in human MOLM13 cells assessed as residual activity at 100 nM relative to control; assay type: cell-based; details: MOLM-13
SET-2 [24] = test: Induction of apoptosis in human SET-2 cells assessed as early apoptotic cells at 0.05 uM incubated for 24 hrs by Annexin V/PI staining based flow cytometric analysis (reference value: 1.47 %); assay type: functional
SET-2 [25] = test: Induction of apoptosis in human SET-2 cells assessed as necrotic cells at 0.2 uM incubated for 24 hrs by Annexin V/PI staining based flow cytometric analysis (reference value: 0.78%); assay type: functional
[26] = target: Receptor-type tyrosine-protein kinase FLT3 (Homo sapiens) (UniProt P36888); test: Inhibition of FLT3 in human SET2 cells assessed as decrease in FLT3 phosphorylation at 1 to 1000 nM after 2 hrs by Western blot analysis; assay type: cell-based; details: dose 1-1000 nM

Chain of Non-receptor tyrosine-protein kinase TYK2 (P29597 whole entry): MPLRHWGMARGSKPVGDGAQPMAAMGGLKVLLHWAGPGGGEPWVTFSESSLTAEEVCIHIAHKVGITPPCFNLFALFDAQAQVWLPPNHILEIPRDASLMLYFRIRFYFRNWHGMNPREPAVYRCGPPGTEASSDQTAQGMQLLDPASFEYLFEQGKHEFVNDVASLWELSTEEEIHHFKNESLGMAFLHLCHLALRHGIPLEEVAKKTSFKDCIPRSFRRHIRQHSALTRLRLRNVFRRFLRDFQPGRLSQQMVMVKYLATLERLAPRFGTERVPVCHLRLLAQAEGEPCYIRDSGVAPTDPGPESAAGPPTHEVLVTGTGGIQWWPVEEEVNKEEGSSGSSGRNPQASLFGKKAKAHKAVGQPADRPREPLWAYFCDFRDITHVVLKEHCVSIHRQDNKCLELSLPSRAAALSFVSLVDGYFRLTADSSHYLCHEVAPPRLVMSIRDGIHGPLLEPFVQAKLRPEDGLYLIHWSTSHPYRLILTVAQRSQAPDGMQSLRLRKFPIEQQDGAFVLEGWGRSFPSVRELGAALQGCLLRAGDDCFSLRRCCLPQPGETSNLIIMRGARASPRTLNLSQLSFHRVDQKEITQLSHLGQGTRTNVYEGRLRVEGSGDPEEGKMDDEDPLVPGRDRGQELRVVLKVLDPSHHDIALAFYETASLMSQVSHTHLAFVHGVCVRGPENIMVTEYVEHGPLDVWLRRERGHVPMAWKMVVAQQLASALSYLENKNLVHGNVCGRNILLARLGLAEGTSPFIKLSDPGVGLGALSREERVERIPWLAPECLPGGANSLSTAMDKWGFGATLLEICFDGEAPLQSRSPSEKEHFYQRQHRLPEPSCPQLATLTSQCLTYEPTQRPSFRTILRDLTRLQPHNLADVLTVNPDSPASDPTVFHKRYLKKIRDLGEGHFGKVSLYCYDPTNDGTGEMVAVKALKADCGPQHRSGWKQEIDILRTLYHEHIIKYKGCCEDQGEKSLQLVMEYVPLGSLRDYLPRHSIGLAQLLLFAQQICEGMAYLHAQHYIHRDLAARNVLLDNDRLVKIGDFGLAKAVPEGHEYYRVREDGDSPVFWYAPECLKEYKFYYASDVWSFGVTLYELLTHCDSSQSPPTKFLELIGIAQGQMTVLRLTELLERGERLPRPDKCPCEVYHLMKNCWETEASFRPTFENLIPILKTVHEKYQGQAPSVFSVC
Chain of Tyrosine-protein kinase JAK1 (P23458 whole entry): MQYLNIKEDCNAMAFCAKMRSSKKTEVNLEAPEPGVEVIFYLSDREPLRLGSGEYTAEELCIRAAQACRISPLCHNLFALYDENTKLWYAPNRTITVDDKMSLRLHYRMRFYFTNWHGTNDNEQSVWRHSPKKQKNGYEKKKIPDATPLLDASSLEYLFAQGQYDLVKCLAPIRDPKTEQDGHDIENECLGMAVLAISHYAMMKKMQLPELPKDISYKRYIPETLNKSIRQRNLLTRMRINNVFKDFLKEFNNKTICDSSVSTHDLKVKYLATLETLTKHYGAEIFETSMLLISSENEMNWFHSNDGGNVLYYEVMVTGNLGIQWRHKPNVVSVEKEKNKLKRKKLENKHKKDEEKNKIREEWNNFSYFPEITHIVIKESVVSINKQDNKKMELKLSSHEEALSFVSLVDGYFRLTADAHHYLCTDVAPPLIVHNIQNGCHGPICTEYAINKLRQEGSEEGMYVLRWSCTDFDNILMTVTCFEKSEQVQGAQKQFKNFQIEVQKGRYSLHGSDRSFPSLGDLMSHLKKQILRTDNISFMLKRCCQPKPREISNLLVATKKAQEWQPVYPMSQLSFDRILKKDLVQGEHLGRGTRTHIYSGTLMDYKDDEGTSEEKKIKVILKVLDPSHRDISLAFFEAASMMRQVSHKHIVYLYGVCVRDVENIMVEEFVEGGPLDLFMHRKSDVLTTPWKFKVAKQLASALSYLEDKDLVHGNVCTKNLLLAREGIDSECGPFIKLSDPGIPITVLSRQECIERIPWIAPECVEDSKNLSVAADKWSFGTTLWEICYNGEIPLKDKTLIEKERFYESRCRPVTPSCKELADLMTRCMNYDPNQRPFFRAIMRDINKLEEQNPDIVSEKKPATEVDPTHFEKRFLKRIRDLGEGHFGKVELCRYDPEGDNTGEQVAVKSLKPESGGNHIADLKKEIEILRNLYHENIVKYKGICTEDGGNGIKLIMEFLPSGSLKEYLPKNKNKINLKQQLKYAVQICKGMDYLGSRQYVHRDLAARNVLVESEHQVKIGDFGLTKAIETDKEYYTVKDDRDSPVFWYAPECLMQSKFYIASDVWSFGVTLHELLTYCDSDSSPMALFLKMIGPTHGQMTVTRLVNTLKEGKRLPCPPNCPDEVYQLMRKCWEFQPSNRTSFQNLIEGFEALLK
Chain of Tyrosine-protein kinase JAK2 (Mus musculus), Q62120 [V617F] (Q62120 as listed by the source): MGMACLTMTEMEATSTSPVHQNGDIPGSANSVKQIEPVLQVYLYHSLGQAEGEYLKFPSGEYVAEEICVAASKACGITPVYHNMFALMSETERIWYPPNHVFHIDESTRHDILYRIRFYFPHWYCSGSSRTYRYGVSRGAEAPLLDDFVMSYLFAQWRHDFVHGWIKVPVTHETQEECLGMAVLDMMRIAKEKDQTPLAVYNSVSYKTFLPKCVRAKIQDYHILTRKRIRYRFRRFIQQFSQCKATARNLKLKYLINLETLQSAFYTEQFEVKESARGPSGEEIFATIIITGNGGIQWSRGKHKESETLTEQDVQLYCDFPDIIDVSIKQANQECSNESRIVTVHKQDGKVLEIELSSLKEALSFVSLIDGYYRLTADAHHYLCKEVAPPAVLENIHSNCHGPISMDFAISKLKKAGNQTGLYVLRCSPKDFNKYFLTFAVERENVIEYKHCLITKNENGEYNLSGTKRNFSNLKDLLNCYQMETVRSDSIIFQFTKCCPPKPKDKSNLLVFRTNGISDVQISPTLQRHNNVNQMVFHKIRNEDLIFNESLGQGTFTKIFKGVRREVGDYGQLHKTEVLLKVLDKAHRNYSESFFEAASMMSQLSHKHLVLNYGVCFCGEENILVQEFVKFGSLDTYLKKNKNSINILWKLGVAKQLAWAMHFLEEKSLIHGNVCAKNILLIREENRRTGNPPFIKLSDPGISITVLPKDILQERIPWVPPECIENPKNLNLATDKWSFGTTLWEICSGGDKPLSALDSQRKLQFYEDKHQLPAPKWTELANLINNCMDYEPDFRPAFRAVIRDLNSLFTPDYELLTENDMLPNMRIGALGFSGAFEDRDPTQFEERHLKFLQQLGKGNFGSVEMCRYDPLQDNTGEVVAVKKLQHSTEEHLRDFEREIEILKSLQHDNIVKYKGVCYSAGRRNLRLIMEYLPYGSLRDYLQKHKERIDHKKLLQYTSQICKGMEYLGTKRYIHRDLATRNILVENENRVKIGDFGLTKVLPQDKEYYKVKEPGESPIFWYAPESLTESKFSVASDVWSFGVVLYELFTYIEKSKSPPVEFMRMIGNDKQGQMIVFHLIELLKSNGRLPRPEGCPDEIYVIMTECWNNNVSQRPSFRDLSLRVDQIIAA

Cc1cnc(Nc2ccc3c(c2)CCN(C(=O)/C=C/CN(C)C)C3)nc1-c1cnn(C(C)C)c1
pIC50 [1]: 7.38 | pIC50 [2]: 7.12 | pIC50 (Vero): 5.17 | Activity (SET-2 [3]): 84.92% | CL/F [4]: 480 mL/min/kg | Activity (SET-2 [5]): 23.03% | clearance [6]: 83.5 mL/min/kg | inhibition (Mus musculus): Active | Activity (SET-2 [7]): 49.33% | Activity (SET-2 [8]): 0.35% | Tmax [9]: 4.8 min | inhibition [10]: Active | CLint scaled [11]: 423 mL/min/kg | Ratio IC50 [12]: 31 | inhibition in vivo at 15 mg/kg (SET-2 [13]): 51.4% | Activity (BaF3 [14]): 66.3% | Activity (SET-2 [15]): 45.54% | Activity (SET-2 [16]): 2.34% | Activity [17]: Toxic | Activity (SET-2 [18]): 0.48% | Tmax [19]: 54 min | Activity (SET-2 [20]): 94.6% | pIC50 [21]: 7.21 | Activity (BaF3 [22]): 36.2% | Activity [23]: 54% | Activity (SET-2 [24]): 2.7% | Activity (SET-2 [25]): 0.63% | inhibition [26]: inactive
